Experimental findings from ChEMBL document CHEMBL1153625, “Structure-based virtual screening approach to identify novel classes of Cdc25B phosphatase inhibitors” (Bioorg Med Chem Lett, 2009) are described below.

Assay [1] addresses T1, M-phase inducer phosphatase 2 (Homo sapiens, UniProt P30305).
T1 sequence (P30305 whole entry): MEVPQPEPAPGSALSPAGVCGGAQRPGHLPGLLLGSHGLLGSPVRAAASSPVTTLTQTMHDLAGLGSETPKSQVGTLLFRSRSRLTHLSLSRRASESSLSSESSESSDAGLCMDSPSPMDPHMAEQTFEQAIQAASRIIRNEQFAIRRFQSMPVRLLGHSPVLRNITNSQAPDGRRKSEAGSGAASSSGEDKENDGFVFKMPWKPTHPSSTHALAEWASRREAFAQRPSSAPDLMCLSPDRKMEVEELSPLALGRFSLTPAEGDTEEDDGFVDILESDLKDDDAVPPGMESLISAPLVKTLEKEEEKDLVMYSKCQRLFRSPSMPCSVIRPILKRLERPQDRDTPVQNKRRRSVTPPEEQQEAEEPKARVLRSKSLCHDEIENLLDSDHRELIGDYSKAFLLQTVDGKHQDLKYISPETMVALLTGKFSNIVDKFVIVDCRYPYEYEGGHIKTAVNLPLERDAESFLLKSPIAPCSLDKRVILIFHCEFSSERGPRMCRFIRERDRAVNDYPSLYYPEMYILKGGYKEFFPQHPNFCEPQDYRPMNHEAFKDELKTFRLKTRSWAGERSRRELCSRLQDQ
Nature of the assay: Inhibition of GST-fused Cdc25B.

Assay [2] concerns the target T2, M-phase inducer phosphatase 1 (Homo sapiens, UniProt P30304).
T2 sequence (P30304 whole entry): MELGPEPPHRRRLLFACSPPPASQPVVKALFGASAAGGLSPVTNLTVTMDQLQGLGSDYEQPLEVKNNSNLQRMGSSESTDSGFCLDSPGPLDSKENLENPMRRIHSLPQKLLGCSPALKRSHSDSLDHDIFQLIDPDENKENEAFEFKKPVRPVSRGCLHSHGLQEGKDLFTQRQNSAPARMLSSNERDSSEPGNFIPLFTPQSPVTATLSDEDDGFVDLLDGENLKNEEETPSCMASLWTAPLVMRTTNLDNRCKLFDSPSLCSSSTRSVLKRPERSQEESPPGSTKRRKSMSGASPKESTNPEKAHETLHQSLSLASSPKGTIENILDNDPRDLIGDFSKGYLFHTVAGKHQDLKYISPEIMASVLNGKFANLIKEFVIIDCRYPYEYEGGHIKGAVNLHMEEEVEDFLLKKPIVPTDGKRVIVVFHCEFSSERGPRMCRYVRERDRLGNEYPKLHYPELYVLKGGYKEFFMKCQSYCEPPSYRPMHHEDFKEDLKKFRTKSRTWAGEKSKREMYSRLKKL
Nature of the assay: Inhibition of Cdc25A.

Assay [3] in a line: Inhibition of YOP. Details: species or system Yersinia.
Assay [4] has as its target T3, Tyrosine-protein phosphatase non-receptor type 1 (Homo sapiens, UniProt P18031).
T3 sequence (P18031 whole entry): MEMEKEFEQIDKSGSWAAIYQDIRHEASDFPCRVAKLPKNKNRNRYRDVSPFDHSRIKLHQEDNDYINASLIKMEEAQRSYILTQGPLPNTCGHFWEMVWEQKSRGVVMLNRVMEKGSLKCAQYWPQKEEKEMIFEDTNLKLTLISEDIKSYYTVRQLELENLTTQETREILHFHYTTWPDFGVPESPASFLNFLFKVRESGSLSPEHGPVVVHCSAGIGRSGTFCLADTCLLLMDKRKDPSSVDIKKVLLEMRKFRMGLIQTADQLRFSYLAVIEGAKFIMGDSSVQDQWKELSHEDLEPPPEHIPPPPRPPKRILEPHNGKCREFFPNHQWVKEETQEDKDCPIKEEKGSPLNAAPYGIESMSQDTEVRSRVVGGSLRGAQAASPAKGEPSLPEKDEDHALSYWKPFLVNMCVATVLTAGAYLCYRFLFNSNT
Nature of the assay: Inhibition of PTP1B.

The target of assay [5] is T4, Tyrosine-protein phosphatase 1 (Saccharomyces cerevisiae S288c, UniProt P25044).
T4 sequence (P25044 whole entry): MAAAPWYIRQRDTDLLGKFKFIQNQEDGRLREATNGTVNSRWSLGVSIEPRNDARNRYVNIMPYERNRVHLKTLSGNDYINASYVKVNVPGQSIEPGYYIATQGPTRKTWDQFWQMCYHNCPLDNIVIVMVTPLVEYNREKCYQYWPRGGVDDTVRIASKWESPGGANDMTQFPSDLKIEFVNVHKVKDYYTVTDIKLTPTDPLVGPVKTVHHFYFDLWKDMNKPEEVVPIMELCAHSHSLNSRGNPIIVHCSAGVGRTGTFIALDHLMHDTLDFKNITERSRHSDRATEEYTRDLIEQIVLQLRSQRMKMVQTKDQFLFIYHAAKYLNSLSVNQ
Nature of the assay: Inhibition of YPTP1.

In general, IC50 refers to the concentration needed to halve the response being measured. Lower therefore signals greater potency in that assay. Regarding `Nc1cccc(Nc2nc3ccccc3nc2NS(=O)(=O)c2ccc(Cl)cc2)c1`, the IC50 in assay [1] was found to be 11.1 µM; in assay [2], 2.3 µM.
Turning to `N#Cc1c(NS(=O)(=O)c2ccccc2)n(Cc2ccccc2)c2nc3ccccc3nc12`, the IC50 in assay [1] was 0.2 µM; in assay [2], 2.9 µM; in assay [3], over 100 µM; in assay [4], over 100 µM; in assay [5] it was over 100 µM.
With `N#Cc1c(N)n(Cc2ccc3c(c2)OCO3)c2nc3ccccc3nc12`, the results for the IC50 in assay [1] and in assay [2] were 9.1 µM and 5.5 µM, respectively.
With `O=S(=O)(Nc1cc2nc3ccccc3nc2n1Cc1ccccc1)c1ccccc1`, the IC50 in assay [1] was 0.21 µM; in assay [2], 2.1 µM; in assay [3], over 100 µM; in assay [4] it was over 100 µM; in assay [5] it was over 100 µM.
In the case of `O=C(Nc1ccc(Cl)c(Cl)c1)Nc1ncc2c(n1)CC(c1ccco1)CC2=O` (configuration not stated), the values for the concentration for half-maximal inhibition (IC50) in assay [1] and in assay [2] were 13.7 µM and 17.8 µM, respectively.
As to `O=C1C(Cl)=C(NCCc2ccc(F)cc2)C(=O)c2ccccc21`, the IC50 in assay [1] was found to be 9.5 µM; in assay [2], 3.9 µM.
With `O=C(O)c1ccc2c(c1)C(=O)/C(=C/c1ccccc1)C2=O`, the IC50 came out at 8.6 µM in assay [1] and 13.3 µM in assay [2].
The corresponding values for `O=C1C(Cl)=C(NC(Cc2ccccc2)C(=O)O)C(=O)c2ccccc21` (configuration not stated) are 3.8 µM and 3.5 µM.
